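Step 1: Grow cells in 96-well plates. Step 2: Expose to compound for 48 hours at 5 concentrations. Step 3: Interpolate endpoints linearly; if unreached, use highest concentration. TGI marks complete inhibition of growth.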
Experiments:
Test in all cases: inhibition of tumour cell growth, NCI panel, 48 h
SF-268 CNS = tested on: SF-268 CNS
SK-OV-3 ovarian = tested on: SK-OV-3 ovarian
M14 melanoma = tested on: M14 melanoma
OVCAR-4 ovarian = tested on: OVCAR-4 ovarian
SF-295 CNS = tested on: SF-295 CNS
OVCAR-5 ovarian = tested on: OVCAR-5 ovarian
NCI/ADR-RES ovarian = tested on: NCI/ADR-RES ovarian
SK-MEL-5 melanoma = tested on: SK-MEL-5 melanoma
T-47D breast = tested on: T-47D breast
TK-10 renal = tested on: TK-10 renal
MALME-3M melanoma = tested on: MALME-3M melanoma
CCRF-CEM leukemia = tested on: CCRF-CEM leukemia
A549 NSCLC = tested on: A549 NSCLC
MCF7 breast = tested on: MCF7 breast
NCI-H226 lung = tested on: NCI-H226 lung
MOLT-4 leukemia = tested on: MOLT-4 leukemia
HL-60(TB) leukemia = tested on: HL-60(TB) leukemia
BT-549 breast = tested on: BT-549 breast
SF-539 CNS = tested on: SF-539 CNS
SNB-75 CNS = tested on: SNB-75 CNS
SW-620 colon = tested on: SW-620 colon
RXF 393 renal = tested on: RXF 393 renal
U251 CNS = tested on: U251 CNS
K-562 leukemia = tested on: K-562 leukemia
RPMI-8226 leukemia = tested on: RPMI-8226 leukemia
CAKI-1 renal = tested on: CAKI-1 renal
HT29 colon = tested on: HT29 colon
LOX IMVI melanoma = tested on: LOX IMVI melanoma
IGROV1 ovarian = tested on: IGROV1 ovarian
OVCAR-3 ovarian = tested on: OVCAR-3 ovarian
NCI-H23 lung = tested on: NCI-H23 lung
KM12 colon = tested on: KM12 colon
HCT-15 colon = tested on: HCT-15 colon
HOP-92 NSCLC = tested on: HOP-92 NSCLC
SNB-19 CNS = tested on: SNB-19 CNS
HS 578T breast = tested on: HS 578T breast
MDA-N = tested on: MDA-N
COLO 205 colon = tested on: COLO 205 colon
SR leukemia = tested on: SR leukemia
HOP-62 NSCLC = tested on: HOP-62 NSCLC
ACHN renal = tested on: ACHN renal
SK-MEL-28 melanoma = tested on: SK-MEL-28 melanoma
NCI-H522 lung = tested on: NCI-H522 lung
SN12C renal = tested on: SN12C renal
NCI-H460 lung = tested on: NCI-H460 lung
UACC-62 melanoma = tested on: UACC-62 melanoma
SK-MEL-2 melanoma = tested on: SK-MEL-2 melanoma
PC-3 prostate = tested on: PC-3 prostate
DU-145 prostate = tested on: DU-145 prostate
UO-31 renal = tested on: UO-31 renal
OVCAR-8 ovarian = tested on: OVCAR-8 ovarian
HCC-2998 colon = tested on: HCC-2998 colon
A498 renal = tested on: A498 renal
MDA-MB-435 = tested on: MDA-MB-435
UACC-257 melanoma = tested on: UACC-257 melanoma
786-0 renal = tested on: 786-0 renal
HCT-116 colon = tested on: HCT-116 colon
MDA-MB-231 breast = tested on: MDA-MB-231 breast
EKVX NSCLC = tested on: EKVX NSCLC
DMS 114 small cell lung = tested on: DMS 114 small cell lung
DLD-1 colon = tested on: DLD-1 colon
SNB-78 CNS = tested on: SNB-78 CNS
LXFL 529 NSCLC = tested on: LXFL 529 NSCLC

Clc1ccc(C2C3COc4ccccc4C3=NN2c2ccccc2)cc1 (stereo unspecified)
TGI (SF-268 CNS): > 100 µM
TGI (SK-OV-3 ovarian): > 100 µM
TGI (M14 melanoma): > 100 µM
TGI (OVCAR-4 ovarian): > 100 µM
TGI (SF-295 CNS): > 100 µM
TGI (OVCAR-5 ovarian): > 100 µM
TGI (NCI/ADR-RES ovarian): > 100 µM
TGI (SK-MEL-5 melanoma): > 100 µM
TGI (T-47D breast): > 100 µM
TGI (TK-10 renal): > 100 µM
TGI (MALME-3M melanoma): > 100 µM
TGI (CCRF-CEM leukemia): > 37.7 µM
TGI (A549 NSCLC): > 100 µM
TGI (MCF7 breast): > 100 µM
TGI (NCI-H226 lung): > 100 µM
TGI (MOLT-4 leukemia): 47 µM
TGI (HL-60(TB) leukemia): > 68.2 µM
TGI (BT-549 breast): > 100 µM
TGI (SF-539 CNS): > 100 µM
TGI (SNB-75 CNS): 98.9 µM
TGI (SW-620 colon): > 32.7 µM
TGI (RXF 393 renal): > 100 µM
TGI (U251 CNS): > 100 µM
TGI (K-562 leukemia): 21.9 µM
TGI (RPMI-8226 leukemia): 7.32 µM
TGI (CAKI-1 renal): > 100 µM
TGI (HT29 colon): > 100 µM
TGI (LOX IMVI melanoma): > 48.7 µM
TGI (IGROV1 ovarian): > 100 µM
TGI (OVCAR-3 ovarian): > 100 µM
TGI (NCI-H23 lung): > 100 µM
TGI (KM12 colon): > 100 µM
TGI (HCT-15 colon): > 100 µM
TGI (HOP-92 NSCLC): > 100 µM
TGI (SNB-19 CNS): > 93.5 µM
TGI (HS 578T breast): > 100 µM
TGI (MDA-N): > 67.4 µM
TGI (COLO 205 colon): > 100 µM
TGI (SR leukemia): 1.78 µM
TGI (HOP-62 NSCLC): > 100 µM
TGI (ACHN renal): > 100 µM
TGI (SK-MEL-28 melanoma): > 100 µM
TGI (NCI-H522 lung): > 100 µM
TGI (SN12C renal): > 100 µM
TGI (NCI-H460 lung): > 100 µM
TGI (UACC-62 melanoma): > 100 µM
TGI (SK-MEL-2 melanoma): > 100 µM
TGI (PC-3 prostate): > 100 µM
TGI (DU-145 prostate): > 100 µM
TGI (UO-31 renal): > 100 µM
TGI (OVCAR-8 ovarian): > 100 µM
TGI (HCC-2998 colon): > 100 µM
TGI (A498 renal): > 100 µM
TGI (MDA-MB-435): > 100 µM
TGI (UACC-257 melanoma): > 100 µM
TGI (786-0 renal): > 96.4 µM
TGI (HCT-116 colon): > 100 µM
TGI (MDA-MB-231 breast): > 100 µM
TGI (EKVX NSCLC): > 100 µM

COC(=O)C(Cc1nc2ccc(Cl)cc2[nH]c1=O)/C(=N\N)C(=O)Nc1cc(C)c(Cl)cc1S(=O)(=O)O (stereo unspecified)
TGI (SF-268 CNS): > 100 µM
TGI (SK-OV-3 ovarian): > 100 µM
TGI (M14 melanoma): > 100 µM
TGI (OVCAR-4 ovarian): > 100 µM
TGI (SF-295 CNS): > 100 µM
TGI (OVCAR-5 ovarian): > 100 µM
TGI (SK-MEL-5 melanoma): > 100 µM
TGI (MALME-3M melanoma): > 100 µM
TGI (CCRF-CEM leukemia): > 100 µM
TGI (A549 NSCLC): > 100 µM
TGI (NCI-H226 lung): > 100 µM
TGI (MOLT-4 leukemia): > 100 µM
TGI (DMS 114 small cell lung): > 100 µM
TGI (SF-539 CNS): > 100 µM
TGI (U251 CNS): > 100 µM
TGI (K-562 leukemia): > 100 µM
TGI (DLD-1 colon): > 100 µM
TGI (RPMI-8226 leukemia): > 100 µM
TGI (CAKI-1 renal): > 100 µM
TGI (HT29 colon): > 100 µM
TGI (LOX IMVI melanoma): > 100 µM
TGI (IGROV1 ovarian): > 100 µM
TGI (OVCAR-3 ovarian): > 100 µM
TGI (NCI-H23 lung): > 100 µM
TGI (KM12 colon): > 100 µM
TGI (SNB-78 CNS): > 100 µM
TGI (HCT-15 colon): > 100 µM
TGI (HOP-92 NSCLC): > 100 µM
TGI (SNB-19 CNS): > 100 µM
TGI (COLO 205 colon): > 100 µM
TGI (SR leukemia): > 100 µM
TGI (HOP-62 NSCLC): > 100 µM
TGI (ACHN renal): > 100 µM
TGI (SK-MEL-28 melanoma): > 100 µM
TGI (NCI-H522 lung): > 100 µM
TGI (SN12C renal): > 100 µM
TGI (NCI-H460 lung): > 100 µM
TGI (UACC-62 melanoma): > 100 µM
TGI (SK-MEL-2 melanoma): > 100 µM
TGI (UO-31 renal): > 100 µM
TGI (LXFL 529 NSCLC): > 100 µM
TGI (OVCAR-8 ovarian): > 100 µM
TGI (HCC-2998 colon): > 100 µM
TGI (A498 renal): > 100 µM
TGI (UACC-257 melanoma): > 100 µM
TGI (786-0 renal): > 100 µM
TGI (HCT-116 colon): > 100 µM
TGI (EKVX NSCLC): > 100 µM

CN(C)CCCN1CCC2(CCC(C(C)(C)C)CC2)CC1
TGI (SF-268 CNS): 7.29 µM
TGI (SK-OV-3 ovarian): 22.8 µM
TGI (M14 melanoma): 3.46 µM
TGI (OVCAR-4 ovarian): 17.3 µM
TGI (SF-295 CNS): 3.96 µM
TGI (OVCAR-5 ovarian): 9.08 µM
TGI (NCI/ADR-RES ovarian): 19.5 µM
TGI (SK-MEL-5 melanoma): 3.02 µM
TGI (T-47D breast): 3.99 µM
TGI (TK-10 renal): 3.34 µM
TGI (MALME-3M melanoma): 3.4 µM
TGI (CCRF-CEM leukemia): 4.82 µM
TGI (A549 NSCLC): 12.1 µM
TGI (MCF7 breast): 3.07 µM
TGI (NCI-H226 lung): 19.9 µM
TGI (MOLT-4 leukemia): 5.74 µM
TGI (HL-60(TB) leukemia): 2.23 µM
TGI (BT-549 breast): 24.5 µM
TGI (SF-539 CNS): 3.89 µM
TGI (SNB-75 CNS): 4.11 µM
TGI (SW-620 colon): 7.87 µM
TGI (RXF 393 renal): 4.13 µM
TGI (U251 CNS): 3.64 µM
TGI (K-562 leukemia): 0.962 µM
TGI (RPMI-8226 leukemia): 10.5 µM
TGI (CAKI-1 renal): 7.55 µM
TGI (HT29 colon): 1.7 µM
TGI (LOX IMVI melanoma): 3.22 µM
TGI (IGROV1 ovarian): 9.03 µM
TGI (OVCAR-3 ovarian): 10.9 µM
TGI (NCI-H23 lung): 21.7 µM
TGI (KM12 colon): 6.18 µM
TGI (HCT-15 colon): 9.55 µM
TGI (HOP-92 NSCLC): 10.1 µM
TGI (SNB-19 CNS): 11.8 µM
TGI (HS 578T breast): 4.89 µM
TGI (MDA-N): 2.44 µM
TGI (COLO 205 colon): 3.04 µM
TGI (SR leukemia): 4.85 µM
TGI (HOP-62 NSCLC): 4.91 µM
TGI (ACHN renal): 18.8 µM
TGI (SK-MEL-28 melanoma): 3.36 µM
TGI (NCI-H522 lung): 6.07 µM
TGI (SN12C renal): 20.6 µM
TGI (NCI-H460 lung): 2.36 µM
TGI (UACC-62 melanoma): 3.33 µM
TGI (SK-MEL-2 melanoma): 3.26 µM
TGI (PC-3 prostate): 10.8 µM
TGI (DU-145 prostate): 19.3 µM
TGI (UO-31 renal): 3.4 µM
TGI (OVCAR-8 ovarian): 16.5 µM
TGI (HCC-2998 colon): 0.417 µM
TGI (A498 renal): 4.6 µM
TGI (MDA-MB-435): 1.19 µM
TGI (UACC-257 melanoma): 2.76 µM
TGI (786-0 renal): 3.09 µM
TGI (HCT-116 colon): 3.19 µM
TGI (MDA-MB-231 breast): 3.91 µM
TGI (EKVX NSCLC): 19.4 µM

Reference: PubChem BioAssay (NCI)
